pKi: −log10 of the molar value. Several values for one entry are separate records, joined by “and”; a condition that tells them apart may be missing. Equal values may be shown once.
Key:
male Wistar rats = test: Sleep-wakefulness, locomotor activity and body temperature monitoring (SCORE-2000); format: in vivo, rat; details: for sleep continuity, as assessed by sleep bout length: 10 mg/kg PO at CT-18, male Wistar rats; for total sleep time post-treatment: 10 mg/kg PO at CT-18, versus methylcellulose vehicle; for body temperature adverse effects / disproportional locomotor inhibition: rats; for net longest sleep bout post treatment: adjusted using a baseline value at least 24 hours prior; for net longest sleep bout post treatment / average sleep bout / nonREM peak time value / cumulative total increase in nonREM sleep / REM sleep inhibition / locomotor activity inhibition relative to the normal effects of sleep / longest sleep bout / rebound insomnia: functional criteria list; for average sleep bout: at absolute peak; for nonREM peak time value: by the third hour after administration; for cumulative total increase in nonREM sleep: doses that produce maximum sleep consolidation
[1] = target: T1, human recombinant M2 muscarinic receptor expressed in CHO cells (Homo sapiens, UniProt P08172); test: M2 binding assay (human recombinant); details: Examples 15-17; unit inferred; read-out: binding affinity for cholinergic (muscarinic) receptor M2
T1 construct: expressed in transfected cells; host or cells: CHO cells
T1 sequence (P08172 1-466): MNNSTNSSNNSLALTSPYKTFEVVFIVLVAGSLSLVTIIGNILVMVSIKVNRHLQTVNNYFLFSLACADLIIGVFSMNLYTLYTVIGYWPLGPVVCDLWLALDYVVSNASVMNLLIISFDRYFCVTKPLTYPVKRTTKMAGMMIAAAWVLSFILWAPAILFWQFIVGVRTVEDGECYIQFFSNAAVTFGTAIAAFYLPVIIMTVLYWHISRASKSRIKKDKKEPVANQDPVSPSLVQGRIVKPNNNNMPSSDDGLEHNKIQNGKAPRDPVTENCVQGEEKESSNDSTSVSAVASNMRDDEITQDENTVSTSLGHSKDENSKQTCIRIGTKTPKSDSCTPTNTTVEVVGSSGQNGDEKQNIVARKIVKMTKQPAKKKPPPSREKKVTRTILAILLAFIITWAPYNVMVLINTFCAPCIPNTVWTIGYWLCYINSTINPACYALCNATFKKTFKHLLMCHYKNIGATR

[2] = target: T2, human recombinant M3 muscarinic receptor expressed in CHO cells (Homo sapiens, UniProt P20309); test: M3 binding assay (human recombinant); details: Examples 15-17; unit inferred; read-out: binding affinity for cholinergic (muscarinic) receptor M3
T2 construct: expressed in transfected cells; host or cells: CHO cells
T2 sequence (P20309 whole entry): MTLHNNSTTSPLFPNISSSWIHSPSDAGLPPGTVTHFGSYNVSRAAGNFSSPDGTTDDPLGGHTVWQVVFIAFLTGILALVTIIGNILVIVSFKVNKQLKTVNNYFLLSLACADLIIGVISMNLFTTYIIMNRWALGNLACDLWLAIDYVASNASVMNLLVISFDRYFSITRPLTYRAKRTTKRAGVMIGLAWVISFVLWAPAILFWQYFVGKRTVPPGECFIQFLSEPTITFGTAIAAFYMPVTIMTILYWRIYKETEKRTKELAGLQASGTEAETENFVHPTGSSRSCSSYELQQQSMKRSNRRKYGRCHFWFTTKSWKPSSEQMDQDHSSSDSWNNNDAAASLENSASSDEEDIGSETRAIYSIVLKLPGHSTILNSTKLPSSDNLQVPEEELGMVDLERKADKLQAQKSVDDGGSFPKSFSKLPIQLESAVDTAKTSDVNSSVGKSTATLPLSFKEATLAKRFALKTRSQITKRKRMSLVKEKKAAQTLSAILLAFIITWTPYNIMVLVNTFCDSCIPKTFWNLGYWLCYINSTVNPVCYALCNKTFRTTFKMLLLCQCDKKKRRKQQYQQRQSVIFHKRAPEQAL

[3] = target: T3, H1 receptor from bovine cellular membranes (Bos taurus, UniProt P30546); test: H1 binding assay, [3H]pyrilamine displacement; details: Examples 15-17; read-out: Ki, H1 binding assay
T3 construct: the H1 receptor was from bovine cellular membranes; from tissue
T3 sequence (P30546 whole entry): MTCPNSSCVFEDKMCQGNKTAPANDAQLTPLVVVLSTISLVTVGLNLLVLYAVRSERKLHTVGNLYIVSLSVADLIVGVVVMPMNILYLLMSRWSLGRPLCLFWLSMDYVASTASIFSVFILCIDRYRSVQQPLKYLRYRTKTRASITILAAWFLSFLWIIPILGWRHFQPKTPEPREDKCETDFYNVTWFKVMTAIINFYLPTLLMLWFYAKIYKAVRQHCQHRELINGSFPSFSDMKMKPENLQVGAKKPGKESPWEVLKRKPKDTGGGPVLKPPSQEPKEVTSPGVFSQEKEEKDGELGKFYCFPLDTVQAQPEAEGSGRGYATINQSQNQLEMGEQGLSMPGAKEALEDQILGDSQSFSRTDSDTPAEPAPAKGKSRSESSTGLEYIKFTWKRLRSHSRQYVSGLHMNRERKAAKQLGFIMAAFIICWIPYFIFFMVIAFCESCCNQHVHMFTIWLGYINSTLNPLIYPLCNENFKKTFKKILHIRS

[4] = target: T4, human recombinant M1 muscarinic receptor expressed in CHO cells (Homo sapiens, UniProt P11229); test: M1 binding assay (human recombinant), [3H]-scopolamine N-methyl chloride; details: Examples 15-17; unit inferred; read-out: binding affinity for cholinergic (muscarinic) receptor M1
T4 construct: expressed in transfected cells; host or cells: CHO cells
T4 sequence (P11229 1-460): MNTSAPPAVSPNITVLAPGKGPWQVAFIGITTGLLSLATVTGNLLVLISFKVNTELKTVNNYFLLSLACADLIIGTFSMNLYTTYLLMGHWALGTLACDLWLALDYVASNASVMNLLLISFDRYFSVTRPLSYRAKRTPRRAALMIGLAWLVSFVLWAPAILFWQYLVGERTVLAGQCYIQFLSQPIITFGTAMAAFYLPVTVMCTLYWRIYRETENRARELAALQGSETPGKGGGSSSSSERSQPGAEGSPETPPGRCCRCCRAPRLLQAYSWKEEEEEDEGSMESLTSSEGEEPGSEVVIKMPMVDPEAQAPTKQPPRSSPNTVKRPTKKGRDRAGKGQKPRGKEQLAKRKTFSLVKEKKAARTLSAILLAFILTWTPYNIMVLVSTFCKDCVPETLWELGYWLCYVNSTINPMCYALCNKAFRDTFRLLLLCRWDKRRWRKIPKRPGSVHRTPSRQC

[5] = tested on: M3 receptor from guinea pig ileum membranes; details: read-out: Ki of reference compounds, M3 binding assay; cited from earlier work

Row | SMILES | pKi [1] | pKi [2] | pKi [3] | pKi [4] | Average Bout-Length (male Wistar rats; 30 mg/kg PO at CT-18) [min] | Maximum Bout Length (male Wistar rats; 30 mg/kg PO at CT-18) [min] | NREM Accum. (male Wistar rats; 30 mg/kg PO at CT-18) [min] | NREM Peak (%/hr) (male Wistar rats; 30 mg/kg PO at CT-18) | Onset (male Wistar rats; 30 mg/kg PO at CT-18) [min] | sleep continuity, as assessed by sleep bout length (male Wistar rats) | total sleep time post-treatment (male Wistar rats) | body temperature adverse effects (male Wistar rats) | disproportional locomotor inhibition (male Wistar rats) | also measured
1 | O=C(O)CCCN1CCC(=C2c3ccccc3COc3ccccc32)CC1 [Compound 73a] |  |  |  |  | 14.5 | 27.6 | 47.3 | 62.2 | 45 |  |  |  |  | Duration (hrs) (male Wistar rats; 30 mg/kg PO at CT-18): 5-6+ hrs
2 | CC(C)(CN1CCC(=C2c3ccccc3COc3ccccc32)CC1)C(=O)O [Compound 74a] |  |  |  |  | 9.9 | 22.3 | 43.4 | 64.4 | 70 to 80 |  |  |  |  | Duration (male Wistar rats; 30 mg/kg PO at CT-18): 5 to 6 h
3 | CC(C)(CCN1CCC(=C2c3ccccc3COc3ccccc32)CC1)C(=O)O [Compound 75a] |  |  |  |  | 6.8 | 13.6 | 33.9 | 58.8 | 70 to 85 |  |  |  |  | Duration (male Wistar rats; 30 mg/kg PO at CT-18): 4 h; Average Bout-Length (male Wistar rats; 45 mg/kg PO at CT-18): 10.8 min; Duration (male Wistar rats; 45 mg/kg PO at CT-18): 5 h; Maximum Bout Length (male Wistar rats; 45 mg/kg PO at CT-18): 19.4 min; NREM Accum. (male Wistar rats; 45 mg/kg PO at CT-18): 33.9 min; NREM Peak (%/hr) (male Wistar rats; 45 mg/kg PO at CT-18): 58.2 %/hr; Onset (male Wistar rats; 45 mg/kg PO at CT-18): 70 to 85 min
4 | O[Si](CCCN1CCCCC1)(c1ccccc1)C1CCCCC1 (stereo not shown) [HHSID] |  |  |  |  |  |  |  |  |  |  |  |  |  | pKi [5]: 6.55

Second part, led by results:

Row | pKi [1] | pKi [2] | pKi [3] | pKi [4] | SMILES | Average Bout-Length (male Wistar rats; 30 mg/kg PO at CT-18) [min] | Maximum Bout Length (male Wistar rats; 30 mg/kg PO at CT-18) [min] | NREM Accum. (male Wistar rats; 30 mg/kg PO at CT-18) [min] | NREM Peak (%/hr) (male Wistar rats; 30 mg/kg PO at CT-18) | Onset (male Wistar rats; 30 mg/kg PO at CT-18) [min] | sleep continuity, as assessed by sleep bout length (male Wistar rats) | total sleep time post-treatment (male Wistar rats) | body temperature adverse effects (male Wistar rats) | disproportional locomotor inhibition (male Wistar rats) | also measured
5 | < 5.00 | < 5.00 | 7.62 | < 5.00 | CC(C)(CCN1CCN(C2=Nc3ccccc3Oc3ccc(Cl)cc32)CC1)C(=O)O [Compound SS1] |  |  |  |  |  | increased sleep continuity | significantly increased total sleep time | no evidence of causing disproportional locomotor inhibition or body temperature adverse effects | no evidence of causing disproportional locomotor inhibition or body temperature adverse effects | 
6 | < 5.00 | < 5.00 | 7.63 | < 5.00 | CC(C)(CN1CCN(C2=Nc3cc(Cl)ccc3Nc3ccccc32)CC1)C(=O)O [Compound SS2] |  |  |  |  |  | increased sleep continuity | significantly increased total sleep time | no evidence of causing disproportional locomotor inhibition or body temperature adverse effects | no evidence of causing disproportional locomotor inhibition or body temperature adverse effects | 
7 |  |  | > 6.30 |  | Cl.O=C(O)CCN1CCC(=C(c2ccccc2)c2ccccc2)CC1 [Compound U1] |  |  |  |  |  | increased sleep continuity | significantly increased total sleep time | no evidence of causing disproportional locomotor inhibition or body temperature adverse effects | no evidence of causing disproportional locomotor inhibition or body temperature adverse effects | net longest sleep bout post treatment (male Wistar rats): greater than or equal to 3 minutes; average sleep bout (male Wistar rats): greater than 5 minutes; nonREM peak time value (male Wistar rats): greater than 55 % nonREM sleep per hour; cumulative total increase in nonREM sleep (male Wistar rats): not less than 20 minutes; REM sleep inhibition (male Wistar rats): does not appreciably inhibit REM sleep; locomotor activity inhibition relative to the normal effects of sleep (male Wistar rats): does not disproportionately inhibit locomotor activity; longest sleep bout (male Wistar rats): greater than 13 minutes; rebound insomnia (male Wistar rats): does not produce appreciable amounts of rebound insomnia
8 | < 5.00 | < 5.00 | > 6.30 and 7.87 | < 5.00 | CC(C)(CN1CCC(N2c3ccccc3Sc3ccccc32)CC1)C(=O)O.Cl [Compound UU1] |  |  |  |  |  | increased sleep continuity | significantly increased total sleep time | no evidence of causing disproportional locomotor inhibition or body temperature adverse effects | no evidence of causing disproportional locomotor inhibition or body temperature adverse effects | net longest sleep bout post treatment (male Wistar rats): greater than or equal to 3 minutes; average sleep bout (male Wistar rats): greater than 5 minutes; nonREM peak time value (male Wistar rats): greater than 55 % nonREM sleep per hour; cumulative total increase in nonREM sleep (male Wistar rats): not less than 20 minutes; REM sleep inhibition (male Wistar rats): does not appreciably inhibit REM sleep; locomotor activity inhibition relative to the normal effects of sleep (male Wistar rats): does not disproportionately inhibit locomotor activity; longest sleep bout (male Wistar rats): greater than 13 minutes; rebound insomnia (male Wistar rats): does not produce appreciable amounts of rebound insomnia
